Assay results published in US20160317525A1 (Teva Pharmaceutical Industries, Ltd., priority 2013, published 2016).

Assays:
MOG induced EAE = assay: Laquinimod combined with teriflunomide in MOG induced EAE (Example 2); format: in vivo, mice of the C57BL/6 strain; conditions: Day 1-30; for GMS: group mean score; for MMS: mean maximal score; for % inhibition (GMS) / % inhibition (Incidence) / % inhibition (MMS): vs vehicle
[1] = tested on: experimental autoimmune encephalomyelitis; conditions: in mice; Merill et al., 2009; cited from earlier work
[2] = 7 mg/day and 14 mg/day; O'Connor et al. 2011; cited from earlier work
CYP2C9 = CYP2C9 (Homo sapiens, UniProt P11712); conditions: O'Connor et al. 2006 and Warneke et al. 2009; cited from earlier work
Sequence of CYP2C9 (P11712 whole entry): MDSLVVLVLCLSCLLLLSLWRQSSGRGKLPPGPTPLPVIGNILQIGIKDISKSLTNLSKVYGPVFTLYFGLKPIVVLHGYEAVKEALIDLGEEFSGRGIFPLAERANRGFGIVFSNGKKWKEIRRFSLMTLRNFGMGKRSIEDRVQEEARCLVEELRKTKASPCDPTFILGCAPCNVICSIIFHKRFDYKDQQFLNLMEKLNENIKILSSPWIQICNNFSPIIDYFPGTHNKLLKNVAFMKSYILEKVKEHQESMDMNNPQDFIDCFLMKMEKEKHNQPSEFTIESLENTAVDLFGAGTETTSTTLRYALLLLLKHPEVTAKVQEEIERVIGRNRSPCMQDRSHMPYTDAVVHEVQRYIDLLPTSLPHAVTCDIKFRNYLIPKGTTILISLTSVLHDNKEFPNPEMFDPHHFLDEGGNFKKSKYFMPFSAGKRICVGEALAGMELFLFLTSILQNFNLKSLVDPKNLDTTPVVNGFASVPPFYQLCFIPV

[3] = animal studies; cited from earlier work

CCN(C(=O)c1c(O)c2c(Cl)cccc2n(C)c1=O)c1ccccc1 [Laquinimod, 5-chloro-N-ethyl-4-hydroxy-1-methyl-2-oxo-N-phenyl-1,2-dihydroquinoline-3-carboxamide]
Duration (MOG induced EAE; Laquinimod 5 mg/kg/day gavage): 5.7 ± 5.1 days | Incidence (MOG induced EAE; Laquinimod 5 mg/kg/day gavage): 9/15 | Mortality (MOG induced EAE; Laquinimod 5 mg/kg/day gavage): 0/15 | Onset (MOG induced EAE; Laquinimod 5 mg/kg/day gavage): 20.5 ± 6.6 days | Duration (MOG induced EAE; Laquinimod 25 mg/kg/day gavage): 1.3 ± 3.5 days | Incidence (MOG induced EAE; Laquinimod 25 mg/kg/day gavage): 2/15 | Mortality (MOG induced EAE; Laquinimod 25 mg/kg/day gavage): 0/15 | Onset (MOG induced EAE; Laquinimod 25 mg/kg/day gavage): 26.3 ± 4.4 days | GMS (MOG induced EAE; Laquinimod 5 mg/kg/day gavage): 1.02 ± 1.01 | GMS (MOG induced EAE; Laquinimod 25 mg/kg/day gavage): 0.18 ± 0.52 | MMS (MOG induced EAE; Laquinimod 5 mg/kg/day gavage): 1.9 ± 1.8 | MMS (MOG induced EAE; Laquinimod 25 mg/kg/day gavage): 0.4 ± 1.1 | % inhibition (GMS) (MOG induced EAE; Laquinimod 5 mg/kg/day gavage): 58.4% | % inhibition (Incidence) (MOG induced EAE; Laquinimod 5 mg/kg/day gavage): 35.7% | % inhibition (MMS) (MOG induced EAE; Laquinimod 5 mg/kg/day gavage): 45.7% | % inhibition (GMS) (MOG induced EAE; Laquinimod 25 mg/kg/day gavage): 92.7% | % inhibition (Incidence) (MOG induced EAE; Laquinimod 25 mg/kg/day gavage): 85.7% | % inhibition (MMS) (MOG induced EAE; Laquinimod 25 mg/kg/day gavage): 88.6%

C/C(O)=C(\C#N)C(=O)Nc1ccc(C(F)(F)F)cc1 [Teriflunomide, (2Z)-2-cyano-3-hydroxy-N-[4-(trifluoromethyl)phenyl]but-2-enamide]
Duration (MOG induced EAE; Teriflunomide 3 mg/kg gavage): 11.6 ± 2.3 days | Incidence (MOG induced EAE; Teriflunomide 3 mg/kg gavage): 15/15 | Mortality (MOG induced EAE; Teriflunomide 3 mg/kg gavage): 0/15 | Onset (MOG induced EAE; Teriflunomide 3 mg/kg gavage): 14.0 ± 1.5 days | Duration (MOG induced EAE; Teriflunomide 10 mg/kg gavage): 7.5 ± 5.5 days | Incidence (MOG induced EAE; Teriflunomide 10 mg/kg gavage): 12/15 | Mortality (MOG induced EAE; Teriflunomide 10 mg/kg gavage): 0/15 | Onset (MOG induced EAE; Teriflunomide 10 mg/kg gavage): 18.3 ± 6.4 days | GMS (MOG induced EAE; Teriflunomide 3 mg/kg gavage): 2.34 ± 0.65 | GMS (MOG induced EAE; Teriflunomide 10 mg/kg gavage): 1.40 ± 1.18 | MMS (MOG induced EAE; Teriflunomide 3 mg/kg gavage): 3.7 ± 0.6 | MMS (MOG induced EAE; Teriflunomide 10 mg/kg gavage): 2.4 ± 1.7 | % inhibition (GMS) (MOG induced EAE; Teriflunomide 3 mg/kg gavage): 4.5% | % inhibition (GMS) (MOG induced EAE; Teriflunomide 10 mg/kg gavage): 42.9% | % inhibition (Incidence) (MOG induced EAE; Teriflunomide 10 mg/kg gavage): 14.3% | % inhibition (MMS) (MOG induced EAE; Teriflunomide 10 mg/kg gavage): 31.4% | minimal effective dose [1]: 3 mg/kg | annualized relapse rate versus the placebo [2]: reduce the annualized relapse rate | CYP2C9 inhibition (CYP2C9): inhibit CYP2C9 | teratogenicity [3]: teratogenic
